24 compounds from ChEMBL document CHEMBL4706626, “Triterpenoid-Mediated Inhibition of Virus-Host Interaction: Is Now the Time for Discovering Viral Entry/Release Inhibitors from Nature?” (J Med Chem, 2020) can be followed below.

A value given as a limit tells only on which side of the number the result lay.

One series relates to HEK293T. Kind of series: Inhibition of Ebola virus pseudoparticle GP HR2 domain-mediated viral entry into human 293T cells at 1 uM incubated for 72 hrs by Bright-Glo reagent based assay relative to control. The class given is cell-based. Conditions: Ebolavirus.
Series [1] in a line: Binding affinity to EBOV envelope glycoprotein HR2 domain by surface plasmon resonance. Also noted: species or system Ebolavirus.
Another series has as its system Hepatitis C virus. Kind of series: Antiviral activity against HCV pseudoparticle infected in Huh-7 cells assessed as inhibition of viral entry pretreated for 30 mins with cells followed by viral infection for 4 hrs and subsequent compound wash out and measured after 72 hrs by Bright-Glo reagent based luciferase assay. It counts as functional, organism-based, Hepacivirus hominis.

A short description of series [2]: Inhibition of Zaire Ebola virus pseudoparticle GP HR2 domain-mediated virus-host fusion in human 293T cells incubated for 72 hrs by Bright-Glo reagent based assay. The class given is cell-based, Zaire ebolavirus. Particulars: hek293t.
The nature of series [3]: Antiviral activity against Ebola virus Makona infected in human HeLa cells pretreated for 2 hrs followed by viral infection for 48 hrs by Alexa Fluor 488 staining based assay. The class given is functional, cell-based. Conditions: Zaire ebolavirus.
The nature of series [4]: Antiviral activity against Ebola virus Makona infected in human foreskin fibroblast pretreated for 2 hrs followed by viral infection for 48 hrs by Alexa Fluor 488 staining based assay. The class given is functional, cell-based. Particulars: Zaire ebolavirus.
Series [5] can be described thus: Binding affinity to EBOV envelope glycoprotein HR2 domain assessed as reduction in HR1-HR2 interaction by measuring Kd for HR1-HR2 affinity by surface plasmon resonance (reference value: 1 uM). Set-up: species or system Ebolavirus.
The nature of series [6]: Inhibition of Zaire Ebola virus pseudoparticle GP HR2 domain-mediated virus-host fusion in human A549 cells incubated for 72 hrs by Bright-Glo reagent based assay. The class given is cell-based, Zaire ebolavirus.
The target in a further series is Albumin (Homo sapiens, UniProt P02768). Kind of series: Protein binding in human serum albumin. Conditions: read-out: PB. It counts as ADME.
Chain of Albumin (P02768 whole entry): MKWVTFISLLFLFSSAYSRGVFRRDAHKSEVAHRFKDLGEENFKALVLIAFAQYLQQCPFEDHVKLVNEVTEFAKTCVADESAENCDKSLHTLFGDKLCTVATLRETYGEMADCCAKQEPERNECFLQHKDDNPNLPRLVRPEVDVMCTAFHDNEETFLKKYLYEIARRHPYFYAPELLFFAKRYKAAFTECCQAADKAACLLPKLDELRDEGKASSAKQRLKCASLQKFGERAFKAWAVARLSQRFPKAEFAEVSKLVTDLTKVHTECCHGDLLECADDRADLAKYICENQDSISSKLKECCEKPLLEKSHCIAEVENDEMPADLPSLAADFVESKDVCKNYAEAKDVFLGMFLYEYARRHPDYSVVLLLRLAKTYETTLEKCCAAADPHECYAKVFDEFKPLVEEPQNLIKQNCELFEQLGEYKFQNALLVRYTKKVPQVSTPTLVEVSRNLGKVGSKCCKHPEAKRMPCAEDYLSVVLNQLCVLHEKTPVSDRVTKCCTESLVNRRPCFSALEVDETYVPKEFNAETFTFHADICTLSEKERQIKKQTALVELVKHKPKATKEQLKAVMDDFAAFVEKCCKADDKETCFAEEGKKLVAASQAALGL
A short description of series [7]: Aqueous solubility of compound. The class given is physicochemical.
Series [8] has as its system Human immunodeficiency virus 1. Kind of series: Anti-HIV-1 activity against HIV1 IIIB infected in human H9 cells assessed as in p24 antigen production by sandwich ELISA. It counts as functional, organism-based. Particulars: Human immunodeficiency virus 1, IIIB.
The subject of series [9] is Human immunodeficiency virus 1. Kind of series: Antiviral activity against HIV-1 NL4-3. The class given is functional, organism-based. Conditions: Human immunodeficiency virus 1, NL4-3.
Series [10] has as its system Human immunodeficiency virus 1. Kind of series: Antiviral activity against HIV-1 harboring V307A mutant. The class given is functional, organism-based.
Series [11] has as its system Human immunodeficiency virus 1. Kind of series: Anti-HIV-1 activity against HIV1 IIIB/LAI infected in human CEM 4 cells assessed as reduction in virus-indued cytopathic effect treated for 1 hr with cells followed by viral infection and measured after 5 days. The class given is functional, organism-based. Conditions: Human immunodeficiency virus 1, IIIB/LAI.
Series [12] has as its system Human immunodeficiency virus 1. Kind of series: Anti-HIV-1 activity against HIV1 NL4-3 infected in human HeLa expressing CD4/CCR5/beta-gal assessed as inhibition of syncytium formation incubated for 2 days by MAGI assay. Particulars: Human immunodeficiency virus 1, NL4-3, HeLa, 48 h. The class given is functional, organism-based.
The subject of a further series is Human coronavirus 229E. Kind of series: Antiviral activity against HCoV-229E infected in human MRC5 cells incubated for 2 hrs by XTT method. Conditions: MRC5, 2 h. The class given is functional, organism-based.
A short description of series [13]: Selectivity index, ratio of CC50 for human MRC5 cells to EC50 for HCoV-229E infected in human MRC5 cells. Conditions: MRC5 cells (CC50) and HCoV-229E-infected MRC5 cells (EC50). It counts as toxicity, cell-based.

Regarding `CC(=O)OC[C@H]1O[C@@H](NC(=O)[C@]23CCC(C)(C)C[C@H]2C2=CC[C@@H]4[C@@]5(C)CC[C@H](O)C(C)(C)[C@@H]5CC[C@@]4(C)[C@]2(C)CC3)[C@H](OC(C)=O)[C@@H](OC(C)=O)[C@H]1OC(C)=O`, the inhibition in the series on HEK293T is 32%.

For the compound `CC1(C)CC[C@]2(C(=O)O)CC[C@]3(C)C(=CC[C@@H]4[C@@]5(C)CCC(=O)C(C)(C)[C@@H]5CC[C@]43C)[C@@H]2C1`, the inhibition with HEK293T is 25%.

For `C#CCN(CCCC1(C)N=N1)C(=O)[C@]12CCC(C)(C)C[C@H]1C1=CC[C@@H]3[C@@]4(C)CCC(=O)C(C)(C)[C@@H]4CC[C@@]3(C)[C@]1(C)CC2=O`, in series [1], the dissociation constant Kd was 16800 nM.

Take `CC1(C)CC[C@]2(C(=O)O)CC[C@]3(C)C(=CC[C@@H]4[C@@]5(C)CC[C@H](O)C(C)(C)[C@@H]5CC[C@]43C)[C@@H]2C1` [OLEANOLIC_ACID]: in the series on Hepatitis C virus, the IC50 was found to be 10000 nM. In addition, the inhibition in the series with HEK293T was determined as 1%.

On to `CC1(C)CC[C@]2(C(=O)N[C@@H]3O[C@H](CO)[C@H](O)[C@H](O)[C@H]3O)C(=O)C[C@]3(C)C(=CC[C@@H]4[C@@]5(C)CCC(=O)C(C)(C)[C@@H]5CC[C@]43C)[C@@H]2C1`, for which the inhibition in the series with HEK293T amounted to 6%.

For the compound `CC1(C)CC[C@]2(C(=O)O)[C@H](O)C[C@]3(C)C(=CC[C@@H]4[C@@]5(C)CC[C@H](O)C(C)(C)[C@@H]5CC[C@]43C)[C@@H]2C1`, the inhibition in the series on HEK293T was found to be 2%.

Turning to `CC(=O)OC[C@H]1O[C@@H](NC(=O)[C@]23CCC(C)(C)C[C@H]2C2=CC[C@@H]4[C@@]5(C)CCC(=O)C(C)(C)[C@@H]5CC[C@@]4(C)[C@]2(C)CC3=O)[C@H](OC(C)=O)[C@@H](OC(C)=O)[C@H]1OC(C)=O`, the IC50 in series [2] and in [6] was 59.2 nM in each case. Also, the results for the EC50 in series [3] and in series [4] were 460 nM and 990 nM, respectively. Besides, the inhibition with HEK293T turned out to be 99%. Moreover, the Kd in series [1] stood at 5400 nM; in series [5], 23400 nM.

Regarding `CC(=O)OC[C@H]1O[C@@H](NC(=O)[C@]23CCC(C)(C)C[C@H]2C2=CC[C@@H]4[C@@]5(C)CCC(=O)C(C)(C)[C@@H]5CC[C@@]4(C)[C@]2(C)CC3)[C@H](OC(C)=O)[C@@H](OC(C)=O)[C@H]1OC(C)=O`, the IC50 in [2] and in series [6] was 467 nM in each case. Moreover, the inhibition in the series with HEK293T is 93%.

`CC(=O)OC[C@H]1O[C@@H](NC(=O)[C@]23CCC(C)(C)C[C@H]2C2=CC[C@@H]4[C@@]5(C)CC[C@H](O)C(C)(C)[C@@H]5CC[C@@]4(C)[C@]2(C)C[C@H]3O)[C@H](OC(C)=O)[C@@H](OC(C)=O)[C@H]1OC(C)=O`: in the series on HEK293T, the inhibition was determined as 22%.

As to `CC1(C)CC[C@]2(C(=O)N[C@@H]3O[C@H](CO)[C@H](O)[C@H](O)[C@H]3O)CC[C@]3(C)C(=CC[C@@H]4[C@@]5(C)CCC(=O)C(C)(C)[C@@H]5CC[C@]43C)[C@@H]2C1`, in the series with HEK293T, the inhibition stood at 7%.

Take `CC1(C)CC[C@]2(C(=O)N[C@@H]3O[C@H](CO)[C@H](O)[C@H](O)[C@H]3O)CC[C@]3(C)C(=CC[C@@H]4[C@@]5(C)CC[C@H](O)C(C)(C)[C@@H]5CC[C@]43C)[C@@H]2C1`: the inhibition in the series on HEK293T was determined as 16%.

As to `CC(=O)OC[C@H]1O[C@@H](NC(=O)[C@]23CCC(C)(C)C[C@H]2C2=CC[C@@H]4[C@@]5(C)CC[C@H](O)C(C)(C)[C@@H]5CC[C@@]4(C)[C@]2(C)C[C@H]3O)[C@@H](OC(C)=O)[C@@H](OC(C)=O)[C@@H]1OC(C)=O`, in the series with HEK293T, the inhibition worked out at 17%.

`C=C(C)[C@@H]1CC[C@]2(C(=O)O)CC[C@]3(C)[C@H](CC[C@@H]4[C@@]5(C)CC[C@H](OC(=O)CC(C)(C)C(=O)O)C(C)(C)[C@@H]5CC[C@]43C)[C@@H]12` [BEVIRIMAT]: at Albumin, the fraction unbound was < 0.01. Besides, in [7], the solubility is < 1 µg/mL.

Regarding `C=C(C)[C@@H]1CC[C@]2(C(=O)NCCCCCCCC(=O)N[C@@H](CC(C)C)[C@@H](O)CC(=O)O)CC[C@]3(C)[C@H](CC[C@@H]4[C@@]5(C)CC[C@H](O)C(C)(C)[C@@H]5CC[C@]43C)[C@@H]12`, the IC50 in [8] worked out at 30 nM.

For the compound `CC1(C)CCC2C(=O)C[C@]3(C)C(=CC[C@@H]4[C@@]5(C)CCC(=O)C(C)(C)[C@@H]5CC[C@]43C)[C@@H]2C1` (stereo partly drawn), the IC50 in series [2] and in series [6] was 1350 nM each time. In the series with HEK293T, the inhibition was 52%.

Turning to `CC1(C)CC[C@]2(C(=O)N[C@@H]3O[C@H](CO)[C@@H](O)[C@H](O)[C@@H]3O)CC[C@]3(C)C(=CC[C@@H]4[C@@]5(C)CC[C@H](O)C(C)(C)[C@@H]5CC[C@]43C)[C@@H]2C1`, the inhibition in the series on HEK293T is -5%.

With `CC(=O)OC[C@H]1O[C@@H](NC(=O)[C@]23CCC(C)(C)C[C@H]2C2=CC[C@@H]4[C@@]5(C)CC[C@H](O)C(C)(C)[C@@H]5CC[C@@]4(C)[C@]2(C)CC3)[C@@H](OC(C)=O)[C@@H](OC(C)=O)[C@@H]1OC(C)=O`, the inhibition with HEK293T is -4%.

In the case of `CC1(C)CC[C@]2(C(=O)N[C@@H]3O[C@H](CO)[C@@H](O)[C@H](O)[C@@H]3O)[C@H](O)C[C@]3(C)C(=CC[C@@H]4[C@@]5(C)CC[C@H](O)C(C)(C)[C@@H]5CC[C@]43C)[C@@H]2C1`, in the series on HEK293T, the inhibition amounted to 3%.

Regarding `CC(C)C1=C2[C@H]3CC[C@@H]4[C@@]5(C)CC[C@H](OC(=O)CC(C)(C)C(=O)O)C(C)(C)[C@@H]5CC[C@@]4(C)[C@]3(C)CC[C@@]2([C@@H](O)CN(CCN(C)C)Cc2ccc(Cl)cc2)CC1=O` [GSK2838232], the IC50 in series [9] was 0.81 nM; in series [10] it was 0.71 nM.

Turning to `CC1(C)CC[C@]2(C(=O)N[C@@H]3O[C@H](CO)[C@H](O)[C@H](O)[C@H]3O)[C@H](O)C[C@]3(C)C(=CC[C@@H]4[C@@]5(C)CC[C@H](O)C(C)(C)[C@@H]5CC[C@]43C)[C@@H]2C1`, the inhibition in the series with HEK293T turned out to be 16%.

With `C=C(C)[C@@H]1CC[C@]2(C(=O)NCCCCCCCCCCC(=O)O)CC[C@]3(C)[C@H](CC[C@@H]4[C@@]5(C)CC[C@H](O)C(C)(C)[C@@H]5CC[C@]43C)[C@@H]12`, the IC50 in series [11] was found to be 230 nM.

For the compound `CC(C)C[C@H](NC(=O)CCCCCCCNC(=O)[C@]12CC[C@@H](C(C)C)[C@@H]1[C@H]1CC[C@@H]3[C@@]4(C)CC[C@H](O)C(C)(C)[C@@H]4CC[C@@]3(C)[C@]1(C)CC2)[C@H](O)CC(=O)O`, the EC50 in [12] is 330 nM.

In the case of `C=C(C)[C@@H]1CC[C@]2(C(=O)NCCCCCCCC(=O)N[C@@H](CC(C)C)[C@H](O)CC(=O)O)CC[C@]3(C)[C@H](CC[C@@H]4[C@@]5(C)CC[C@H](O)C(C)(C)[C@@H]5CC[C@]43C)[C@@H]12`, in [12], the EC50 stood at 400 nM.

`C[C@H]1O[C@@](O)(O[C@H]2CC[C@@]3(C)[C@@H](CC[C@]4(C)[C@@H]3C=CC3=C5CC(C)(C)CC[C@]5(CO)[C@H](O)C[C@]34C)[C@]2(C)CO)[C@H](O)[C@@H](O[C@@H]2O[C@H](CO)[C@@H](O)[C@H](O)[C@H]2O)[C@H]1O` showed an IC50 in the series with Human coronavirus 229E of 1700 nM. The selectivity ratio in series [13] was determined as 222.
